Patent publication US12077503B2, “Substituted cyclic amides and their use as herbicides” (FMC CORPORATION, priority 2015, dated 2024)

Key:
Type in all cases: in vivo
[1] = system: barnyardgrass (Echinochloa crus-galli); assay: Test G Pre-Emergence Protocol; settings: Echinochloa crus-galli, pre-emergence, 312 h, evaluated after 13 days
In short: (§1)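 Seeds were sown in standard soil and kept one day in a glasshouse (24/16° C day/night, 14 h light, 65% humidity), then sprayed with compound in acetone/water (50:50) containing 0.5% Tween 20 at 15.625, 62.5 or 250 g/ha. Damage was scored after 13 days (0 = none, 100 = total).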

corn (Zea mays) [2] = assay: Test G Pre-Emergence Protocol; settings: Zea mays, pre-emergence, 312 h, evaluated after 13 days
In short: as §1

[3] = system: giant foxtail (Setaria faberi); assay: Test G Pre-Emergence Protocol; settings: Setaria faberi, pre-emergence, 312 h, evaluated after 13 days
In short: as §1

[4] = system: ivy-leaved morning glory (Ipomoea hederacea); assay: Test G Pre-Emergence Protocol; settings: Ipomoea, pre-emergence, 312 h, evaluated after 13 days
In short: as §1

[5] = system: redroot pigweed (Amaranthus retroflexus); assay: Test G Pre-Emergence Protocol; settings: Amaranthus retroflexus, pre-emergence, 312 h, evaluated after 13 days
In short: as §1

[6] = system: velvetleaf (Abutilon theophrasti); assay: Test G Pre-Emergence Protocol; settings: Abutilon theophrasti, pre-emergence, 312 h, evaluated after 13 days
In short: as §1

[7] = system: barnyardgrass (Echinochloa crus-galli); assay: Test G Post-Emergence Protocol; settings: Echinochloa crus-galli, post-emergence, 312 h
In short: (§2)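 Seedlings grown 8 days in soil in a glasshouse (24/16 °C day/night, 14 h light, 65% humidity) were sprayed post-emergence with compound in acetone/water 50:50 plus 0.5% Tween 20 at 15.625, 62.5 or 250 g/ha. Damage was scored after 13 days on a 0–100 scale (100 = total damage).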

corn (Zea mays) [8] = assay: Test G Post-Emergence Protocol; settings: Zea mays, post-emergence, 312 h
In short: as §2

[9] = system: giant foxtail (Setaria faberi); assay: Test G Post-Emergence Protocol; settings: Setaria faberi, post-emergence, 312 h
In short: as §2

[10] = system: ivy-leaved morning glory (Ipomoea hederacea); assay: Test G Post-Emergence Protocol; settings: Ipomoea, post-emergence, 312 h
In short: as §2

[11] = system: redroot pigweed (Amaranthus retroflexus); assay: Test G Post-Emergence Protocol; settings: Amaranthus retroflexus, post-emergence, 312 h
In short: as §2

[12] = system: velvetleaf (Abutilon theophrasti); assay: Test G Post-Emergence Protocol; settings: Abutilon theophrasti, post-emergence, 312 h
In short: as §2

Compound `COC(=O)c1cc([C@H]2CN(C)C(=O)[C@@H]2C(=O)Nc2ccccc2F)ccc1Cl` (racemic) [Compound 1460] has a pest or weed control at 15.625 g/ha ([1]; 15.625 g ai/ha, read-out: Barnyard grass damage rating (100=total damage to plant; 0=no damage to plant)) of 0%, a pest or weed control at 62.5 g/ha ([1]; 62.5 g ai/ha, 100=total damage to plant, 0=no damage to plant, read-out: plant damage rating, Barnyardgrass) of 70% and a pest or weed control at 250 g/ha ([1]; 250 g ai/ha, read-out: Barnyardgrass damage rating (100=total damage to plant; 0=no damage to plant)) of 90%. The plant injury at 15.625 g/ha (corn (Zea mays) [2]; 15.625 g ai/ha, read-out: Corn damage rating (100=total damage to plant; 0=no damage to plant)) was 0%, the plant injury at 62.5 g/ha (corn (Zea mays) [2]; 62.5 g ai/ha, 100=total damage to plant, 0=no damage to plant, read-out: plant damage rating, Corn) was 0% and the plant injury at 250 g/ha (corn (Zea mays) [2]; 250 g ai/ha, read-out: Corn damage rating (100=total damage to plant; 0=no damage to plant)) was 10%. It also gave a pest or weed control at 15.625 g/ha ([3]; 15.625 g ai/ha, read-out: Foxtail, Giant damage rating (100=total damage to plant; 0=no damage to plant)) of 10%, a pest or weed control at 62.5 g/ha ([3]; 62.5 g ai/ha, 100=total damage to plant, 0=no damage to plant, read-out: plant damage rating, Foxtail, Giant) of 80% and a pest or weed control at 250 g/ha ([3]; 250 g ai/ha, read-out: Foxtail, Giant damage rating (100=total damage to plant; 0=no damage to plant)) of 90%. For the same compound, the pest or weed control at 15.625 g/ha ([4]; 15.625 g ai/ha, read-out: Morning-glory, Ivy-leaved damage rating (100=total damage to plant; 0=no damage to plant)) was 0%, the pest or weed control at 62.5 g/ha ([4]; 62.5 g ai/ha, 100=total damage to plant, 0=no damage to plant, read-out: plant damage rating, Morningglory, Ivy-leaved) was 40% and the pest or weed control at 250 g/ha ([4]; 250 g ai/ha, read-out: Morningglory, Ivy-leaved damage rating (100=total damage to plant; 0=no damage to plant)) was 50%. For the same compound, the pest or weed control at 15.625 g/ha ([5]; 15.625 g ai/ha, read-out: Pigweed, Redroot damage rating (100=total damage to plant; 0=no damage to plant)) was 0%, the pest or weed control at 62.5 g/ha ([5]; 62.5 g ai/ha, 100=total damage to plant, 0=no damage to plant, read-out: plant damage rating, Pigweed, Redroot) was 40% and the pest or weed control at 250 g/ha ([5]; 250 g ai/ha, read-out: Pigweed, Redroot damage rating (100=total damage to plant; 0=no damage to plant)) was 70%. It also gave a pest or weed control at 15.625 g/ha ([6]; 15.625 g ai/ha, read-out: Velvetleaf damage rating (100=total damage to plant; 0=no damage to plant)) of 0%, a pest or weed control at 62.5 g/ha ([6]; 62.5 g ai/ha, 100=total damage to plant, 0=no damage to plant, read-out: plant damage rating, Velvetleaf) of 0% and a pest or weed control at 250 g/ha ([6]; 250 g ai/ha, read-out: Velvetleaf damage rating (100=total damage to plant; 0=no damage to plant)) of 0%. The pest or weed control at 15.625 g/ha ([7]; 15.625 g ai/ha, evaluated after 13 days (100=total damage to plant; 0=no damage to plant), read-out: Barnyardgrass damage rating) was 20%, the pest or weed control at 62.5 g/ha ([7]; 62.5 g ai/ha, evaluated after 13 days, read-out: Barnyardgrass damage rating (100=total damage to plant; 0=no damage to plant)) was 30% and the pest or weed control at 250 g/ha ([7]; 250 g ai/ha, evaluated after 13 days, read-out: damage to plant, Barnyardgrass (100=total damage to plant; 0=no damage to plant)) was 60%. It also gave a plant injury at 15.625 g/ha (corn (Zea mays) [8]; 15.625 g ai/ha, evaluated after 13 days (100=total damage to plant; 0=no damage to plant), read-out: Corn damage rating) of 10%, a plant injury at 62.5 g/ha (corn (Zea mays) [8]; 62.5 g ai/ha, evaluated after 13 days, read-out: Corn damage rating (100=total damage to plant; 0=no damage to plant)) of 0% and a plant injury at 250 g/ha (corn (Zea mays) [8]; 250 g ai/ha, evaluated after 13 days, read-out: damage to plant, Corn (100=total damage to plant; 0=no damage to plant)) of 40%. It also gave a pest or weed control at 15.625 g/ha ([9]; 15.625 g ai/ha, evaluated after 13 days (100=total damage to plant; 0=no damage to plant), read-out: Foxtail, Giant damage rating) of 40%, a pest or weed control at 62.5 g/ha ([9]; 62.5 g ai/ha, evaluated after 13 days, read-out: Foxtail, Giant damage rating (100=total damage to plant; 0=no damage to plant)) of 70% and a pest or weed control at 250 g/ha ([9]; 250 g ai/ha, evaluated after 13 days, read-out: damage to plant, Foxtail, Giant (100=total damage to plant; 0=no damage to plant)) of 70%. It also gave a pest or weed control at 15.625 g/ha ([10]; 15.625 g ai/ha, evaluated after 13 days (100=total damage to plant; 0=no damage to plant), read-out: Morningglory, Ivy-leaved damage rating) of 0%, a pest or weed control at 62.5 g/ha ([10]; 62.5 g ai/ha, evaluated after 13 days, read-out: Morningglory, Ivy-leaved damage rating (100=total damage to plant; 0=no damage to plant)) of 0% and a pest or weed control at 250 g/ha ([10]; 250 g ai/ha, evaluated after 13 days, read-out: damage to plant, Morningglory, Ivy-leaved (100=total damage to plant; 0=no damage to plant)) of 10%. It also gave a pest or weed control at 15.625 g/ha ([11]; 15.625 g ai/ha, evaluated after 13 days (100=total damage to plant; 0=no damage to plant), read-out: Pigweed, Redroot damage rating) of 0%, a pest or weed control at 62.5 g/ha ([11]; 62.5 g ai/ha, evaluated after 13 days, read-out: Pigweed, Redroot damage rating (100=total damage to plant; 0=no damage to plant)) of 10% and a pest or weed control at 250 g/ha ([11]; 250 g ai/ha, evaluated after 13 days, read-out: damage to plant, Pigweed, Redroot (100=total damage to plant; 0=no damage to plant)) of 20%. For the same compound, the pest or weed control at 15.625 g/ha ([12]; 15.625 g ai/ha, evaluated after 13 days (100=total damage to plant; 0=no damage to plant), read-out: Velvetleaf damage rating) was 0%, the pest or weed control at 62.5 g/ha ([12]; 62.5 g ai/ha, evaluated after 13 days, read-out: Velvetleaf damage rating (100=total damage to plant; 0=no damage to plant)) was 0% and the pest or weed control at 250 g/ha ([12]; 250 g ai/ha, evaluated after 13 days, read-out: damage to plant, Velvetleaf (100=total damage to plant; 0=no damage to plant)) was 10%.
